Tested on: B16-F10
Experiment: Transplantable B16-F10 melanoma mouse model: tumor growth and survival under CD39 inhibitor and checkpoint antibodies
Source text: A schematic summary of the therapy regimen used in the transplantable B16-F10 mouse model (described in Methods). Mice were divided into four groups (n=10 per group): untreated (vehicle control), anti-TIM3, CD39 inhibitor (CD39i, using POM-1 small molecule) and anti-TIM3 in combination with CD39i. FIG. 26D. Box plots showing the kinetics of tumor growth between the different groups of mice on days +4, +7, +11, +14 and +18 post tumor transplantation. Data in box plots are means±SEM. P-value was determined by unpaired-student's t-test. FIG. 26E. Mean tumor volumes for all 4 groups are shown, means±SEM. FIG. 26F. Survival at day 30 of B16-F10 tumor-bearing mice for all 4 groups. Log-rank P-value is shown. Data shown for C-F represents one out of two independent experiments, n=10 for each group per experiment. ns—not significant.
To that end Applicants used the aggressive B16-F10 melanoma mouse model. Mice were treated with the small molecule POM-1 to block CD39 activity^38, alone or in combination with anti-TIM3 blocking antibodies (FIG. 26C).
Mice and tumor transplant. […] B16-F10 cells (0.5×10^6) were intradermally injected into the right flank using a 30 g needle and tumors were measured every 4 days in two dimensions using a digital caliper. Tumor volume (mm^3) was calculated using the following formula V=(L*W^2)/2 (V=volume, L=tumor length, tumor width). […]

## O.[Na+].[Na+].[Na+].[Na+].[Na+].[Na+].[O]=[W](=[O])([O-])[O-].[O]=[W](=[O])([O-])[O-].[O]=[W](=[O])([O-])[O-].[O]=[W](=[O])=[O].[O]=[W](=[O])=[O].[O]=[W](=[O])=[O].[O]=[W](=[O])=[O].[O]=[W](=[O])=[O].[O]=[W](=[O])=[O].[O]=[W](=[O])=[O].[O]=[W](=[O])=[O].[O]=[W](=[O])=[O] [POM-1, polyoxometalate-1]
B16-F10 intradermal tumors, CD39 inhibitor and/or anti-TIM3, versus untreated
  tumor growth / tumor size: transiently reduced tumor growth until day 14
B16-F10 tumor-bearing mice, n=10 per group, POM-1 5 mg/kg/day i.p., anti-TIM3 100 μg/dose i.p. every 3 days, from day 4
  survival on day 30: 10%

From US12226479B2, “Methods and compositions of use of CD8+ tumor infiltrating lymphocyte subtypes and gene signatures thereof” (THE GENERAL HOSPITAL CORPORATION, priority 2017, dated 2025)
